Experiments:
Assay type in all cases: functional
[1] = system: Fusarium oxysporum; assay: Antifungal activity against Fusarium oxysporum f. sp. lupini at 20 ug/ml after 48 hrs
[2] = system: Fusarium oxysporum; assay: Antifungal activity against Fusarium oxysporum f. sp. lupini at 20 ug/ml after 96 hrs
[3] = system: Fusarium oxysporum; assay: Antifungal activity against Fusarium oxysporum f. sp. lupini at 20 ug/ml after 144 hrs
[4] = system: Fusarium oxysporum; assay: Antifungal activity against Fusarium oxysporum f. sp. lupini at 20 ug/ml after 192 hrs
[5] = system: Fusarium oxysporum; assay: Antifungal activity against Fusarium oxysporum f. sp. lupini at 20 ug/ml after 192 hrs relative to control; conditions: read-out: GI
[6] = system: Fusarium oxysporum; assay: Antifungal activity against Fusarium oxysporum f. sp. lupini at 1 ug/ml after 48 hrs
[7] = system: Fusarium oxysporum; assay: Antifungal activity against Fusarium oxysporum f. sp. lupini at 1 ug/ml after 96 hrs
[8] = system: Fusarium oxysporum; assay: Antifungal activity against Fusarium oxysporum f. sp. lupini at 1 ug/ml after 144 hrs
[9] = system: Fusarium oxysporum; assay: Antifungal activity against Fusarium oxysporum f. sp. lupini at 1 ug/ml after 192 hrs
[10] = system: Fusarium oxysporum; assay: Antifungal activity against Fusarium oxysporum f. sp. lupini at 1 ug/ml after 192 hrs relative to control; conditions: read-out: GI
[11] = system: Fusarium oxysporum; assay: Antifungal activity against Fusarium oxysporum f. sp. lupini at 0.5 ug/ml after 48 hrs
[12] = system: Fusarium oxysporum; assay: Antifungal activity against Fusarium oxysporum f. sp. lupini at 0.5 ug/ml after 96 hrs
[13] = system: Fusarium oxysporum; assay: Antifungal activity against Fusarium oxysporum f. sp. lupini at 0.5 ug/ml after 144 hrs
[14] = system: Fusarium oxysporum; assay: Antifungal activity against Fusarium oxysporum f. sp. lupini at 0.5 ug/ml after 192 hrs
[15] = system: Fusarium oxysporum; assay: Antifungal activity against Fusarium oxysporum f. sp. lupini at 0.5 ug/ml after 192 hrs relative to control; conditions: read-out: GI
[16] = system: Fusarium oxysporum; assay: Antifungal activity against Fusarium oxysporum f. sp. lupini at 0.1 ug/ml after 48 hrs
[17] = system: Fusarium oxysporum; assay: Antifungal activity against Fusarium oxysporum f. sp. lupini at 0.1 ug/ml after 96 hrs
[18] = system: Fusarium oxysporum; assay: Antifungal activity against Fusarium oxysporum f. sp. lupini at 0.1 ug/ml after 144 hrs
[19] = system: Fusarium oxysporum; assay: Antifungal activity against Fusarium oxysporum f. sp. lupini at 0.1 ug/ml after 192 hrs
[20] = system: Fusarium oxysporum; assay: Antifungal activity against Fusarium oxysporum f. sp. lupini at 0.1 ug/ml after 192 hrs relative to control; conditions: read-out: GI

Structure (SMILES) | Radial growth inhibition of fungi (Ā) (mm) [1] [mm] | Radial growth inhibition of fungi (Ā) (mm) [2] [mm] | Radial growth inhibition of fungi (Ā) (mm) [3] [mm] | Radial growth inhibition of fungi (Ā) (mm) [4] [mm] | inhibition of growth at 20 µg/mL [5] [%] | Radial growth inhibition of fungi (Ā) (mm) [6] [mm] | Radial growth inhibition of fungi (Ā) (mm) [7] [mm] | Radial growth inhibition of fungi (Ā) (mm) [8] [mm] | Radial growth inhibition of fungi (Ā) (mm) [9] [mm] | inhibition of growth at 1 µg/mL [10] [%] | Radial growth inhibition of fungi (Ā) (mm) [11] [mm] | Radial growth inhibition of fungi (Ā) (mm) [12] [mm] | Radial growth inhibition of fungi (Ā) (mm) [13] [mm] | Radial growth inhibition of fungi (Ā) (mm) [14] [mm] | inhibition of growth at 0.5 µg/mL [15] [%] | Radial growth inhibition of fungi (Ā) (mm) [16] [mm] | Radial growth inhibition of fungi (Ā) (mm) [17] [mm] | Radial growth inhibition of fungi (Ā) (mm) [18] [mm] | Radial growth inhibition of fungi (Ā) (mm) [19] [mm] | inhibition of growth at 0.1 µg/mL [20] [%]
COCC/N=C/c1c(O)c(O)c(C(C)C)c2cc(C)c(-c3c(C)cc4c(c3O)C(/C=N/CCOC)C(=O)C(O)=C4C(C)C)c(O)c12 (stereo not given) | 19.5 | 31.88 | 45.88 | 58.88 | 0.6 | 19.75 | 32.13 | 46.13 | 59 | 0.4 | – | – | – | – | – | – | – | – | – | –
CCCCOCCOCCN/C=C1\C(=O)C(O)=C(C(C)C)c2cc(C)c(-c3c(C)cc4c(c3O)/C(=C/NCCOCCOCCCC)C(=O)C(O)=C4C(C)C)c(O)c21 | 13.5 | 23.63 | 33.25 | 43.63 | 26.4 | 14.25 | 23.5 | 33.88 | 44 | 25.7 | 15.13 | 24.63 | 34.75 | 45.13 | 23.8 | 16.38 | 25.63 | 36.75 | 49.25 | 16.9
COCCOC(C/N=C/c1c(O)c(O)c(C(C)C)c2cc(C)c(-c3c(C)cc4c(c3O)C(/C=N/CC(OCCOC)OCCOC)C(=O)C(O)=C4C(C)C)c(O)c12)OCCOC (stereo not given) | 19.63 | 31.63 | 45.5 | 58.38 | 1.5 | 19.75 | 32.13 | 45.63 | 58.63 | 1 | – | – | – | – | – | – | – | – | – | –
Cc1cc2c(c(O)c1-c1c(C)cc3c(c1O)/C(=C/NCCOCCO)C(=O)C(O)=C3C(C)C)/C(=C/NCCOCCO)C(=O)C(O)=C2C(C)C | 14.38 | 24.5 | 34.5 | 45.25 | 23.6 | 16 | 25.75 | 35.88 | 46.25 | 21.9 | 17.63 | 26.5 | 38 | 49.5 | 16.5 | 18.13 | 28.5 | 40.38 | 52.63 | 11.2
Cc1cc2c(c(O)c1-c1c(C)cc3c(c1O)/C(=C/NCCCN1CCOCC1)C(=O)C(O)=C3C(C)C)/C(=C/NCCCN1CCOCC1)C(=O)C(O)=C2C(C)C | 19.25 | 31.63 | 45.63 | 58.63 | 1 | 19.5 | 31.88 | 45.88 | 59 | 0.4 | – | – | – | – | – | – | – | – | – | –
Cc1cc2c(c(O)c1-c1c(C)cc3c(c1O)/C(=C/NCCc1cccs1)C(=O)C(O)=C3C(C)C)/C(=C/NCCc1cccs1)C(=O)C(O)=C2C(C)C | 19.38 | 31.75 | 45.75 | 58.75 | 0.8 | 19.63 | 32 | 46 | 59.13 | 0.2 | – | – | – | – | – | – | – | – | – | –
Cc1cc2c(c(O)c1-c1c(C)cc3c(C(C)C)c(O)c(O)c(/C=N/N4CCN(CCO)CC4)c3c1O)C(/C=N/N1CCN(CCO)CC1)C(=O)C(O)=C2C(C)C (stereo not given) | 19.5 | 31.5 | 45.38 | 58.25 | 1.7 | 19.63 | 32 | 45.5 | 58.5 | 1.3 | – | – | – | – | – | – | – | – | – | –
Cc1cc2c(c(O)c1-c1c(C)cc3c(c1O)/C(=C/NCCCN1CCCC1=O)C(=O)C(O)=C3C(C)C)/C(=C/NCCCN1CCCC1=O)C(=O)C(O)=C2C(C)C | 19.5 | 31.88 | 45.88 | 58.88 | 0.6 | 19.75 | 32.13 | 46.13 | 59.25 | 0 | – | – | – | – | – | – | – | – | – | –
Cc1cc2c(c(O)c1-c1c(C)cc3c(C(C)C)c(O)c(O)c(/C=N/N4CCN(C)CC4)c3c1O)C(/C=N/N1CCN(C)CC1)C(=O)C(O)=C2C(C)C (stereo not given) | 19.25 | 31.63 | 45.75 | 58.5 | 1.3 | 19.38 | 31.88 | 45.75 | 58.75 | 0.8 | – | – | – | – | – | – | – | – | – | –
CCOC(=O)N1CCC(N/C=C2\C(=O)C(O)=C(C(C)C)c3cc(C)c(-c4c(C)cc5c(c4O)/C(=C/NC4CCN(C(=O)OCC)CC4)C(=O)C(O)=C5C(C)C)c(O)c32)CC1 | 19.63 | 32.13 | 46 | 59 | 0.4 | 19.88 | 32.25 | 46.25 | 59.25 | 0 | – | – | – | – | – | – | – | – | – | –
